Data taken from the OPERA property sets (Mansouri et al. 2018).

Conditions: not given

SMILES	boiling point [°C]	melting point [°C]	log10 vapour pressure (mmHg)	log10 biodegradation half-life (days)	ready biodegradability	log10 Henry constant (atm·m³/mol)	log10 Koc (L/kg)	log10 Koa
c1ccc(-c2ccc3ccccc3n2)cc1	363	86	–	–	–	–	–	–
CC(CC(C)(C)C)CC(C)(C)C	178	-67	–	–	–	–	–	–
N#CC(F)(Cl)Cl	33	-110	–	–	–	–	–	–
Cc1cc(C)[nH]n1	218	108	–	–	–	–	–	–
COP(=S)(OC)Oc1cc(Cl)c(I)cc1Cl	–	72.5	-6.08	–	–	–	–	–
Nc1ccnc(N)c1	–	107	–	–	–	–	–	–
Cc1c2ccccc2nc2ccccc12	–	118	–	–	–	–	–	–
CCN(CCO)CCCC(C)Nc1ccnc2cc(Cl)ccc12 (centres undefined)	–	90	–	–	–	–	–	–
CC(C)COCC(C)O (centres undefined)	165	–	0.114	–	–	–	–	–
CCCCCCCCCCCCCCCCCCCCCCCCC	402	54	-5.82	2.08	readily biodegradable	–	–	–
Oc1c(F)c(F)cc(F)c1F	140	38	–	–	–	–	–	–
CCCCCCCCCCCCCCCC(=O)N(CCO)CCO	–	–	–	–	readily biodegradable	–	–	–
COc1ccc2c(c1)CC[C@@H]1[C@@H]2CC[C@]2(C)C(=O)[C@H](Cl)C[C@@H]12	–	180	–	–	–	–	–	–
CCCCC(N)=O	225	106	–	–	–	–	–	–
CCCCCCn1c(=O)c2c(ncn2C)n(C)c1=O	–	82.5	–	–	–	–	–	–
c1ccc(C2c3ccccc3-c3ccccc32)cc1	–	147	–	–	–	–	–	–
CC(C(=O)O)c1ccc(N2Cc3ccccc3C2=O)cc1 (centres undefined)	–	214	–	–	–	–	–	–
Fc1cc(F)nc(F)c1	94.5	–	–	–	–	–	–	–
CCCC(C)CC(C)(C)C (centres undefined)	148	–	–	–	–	–	–	–
CC(O)Cn1c(=O)c2c(ncn2C)n(C)c1=O (centres undefined)	–	141	–	–	–	–	–	–
CN1[C@@H]2CC[C@H]1C[C@@H](O)C2	237	86.5	–	–	–	–	–	–
CC(O)CN (centres undefined)	160	25	-0.328	–	–	–	–	–
ClC1CCCCC1	142	-44	0.828	–	not readily biodegradable	–	–	–

SMILES	boiling point [°C]	melting point [°C]	log10 vapour pressure (mmHg)	log10 biodegradation half-life (days)	ready biodegradability	log10 Henry constant (atm·m³/mol)	log10 Koc (L/kg)	log10 Koa
FC(F)OC(F)F	6.35	-123	–	–	–	–	–	–
Cc1cc(-c2ccc(N=C=O)c(C)c2)ccc1N=C=O	–	71	–	–	–	–	–	–
CCC#CCCC	107	-130	–	–	–	–	–	–
Fc1ccccc1	84.7	-42.2	1.89	–	–	-2.2	–	–
CN(C)C(N)=O	–	184	–	–	–	–	–	–
FC(F)(F)C(F)(F)Cl	-37.9	-99.4	3.84	–	–	–	–	–
COC(=O)c1ccc(OC)cc1	256	49	–	–	–	–	–	–
CC(O)CN(CCN(CC(C)O)CC(C)O)CC(C)O (centres undefined)	–	–	–	–	not readily biodegradable	–	–	–
CCN(CC)CCOC(=O)C(O)(c1ccccc1)c1ccccc1	–	51	–	–	–	–	–	–
c1ccc(C2CCCC2)cc1	219	–	–	–	–	–	–	–
CCOC(=O)c1ccccc1S(=O)(=O)NC(=O)Nc1nc(Cl)cc(OC)n1	–	–	–	–	–	–	2.04	–
CC1(C)C(C=C(Cl)Cl)C1C(=O)OC(C#N)c1cccc(Oc2ccccc2)c1 (centres undefined)	–	81.3	–	–	–	–	5	–
CCC(N)Cc1c[nH]c2ccccc12 (centres undefined)	–	97	–	–	–	–	–	–
CCOC(=O)C(F)(F)C(F)(F)C(F)(F)F	95	–	–	–	–	–	–	–
CCCCCCCCOC(=O)CCCCC	275	-28	–	–	–	–	–	–
Clc1ccc(-c2ccc(Cl)cc2)cc1	317	149	-3.27	–	–	-3.7	–	7.68
CCCCCCCCCCCC(=O)OC(=O)CCCCCCCCCCC	–	41.8	–	–	–	–	–	–
Brc1ccsc1	150	–	1.22	–	–	–	–	–
Cc1ncc(CO)c(C=O)c1O.Cl	–	165	–	–	–	–	–	–
CC(c1ccccc1)c1ccc(O)c(C(C)c2ccccc2)c1C(C)c1ccccc1 (centres undefined)	–	–	–	–	not readily biodegradable	–	–	–
O=C(CCCN1CCN(c2ccccn2)CC1)c1ccc(F)cc1	–	74	–	–	–	–	–	–
CC=CCC(C)=O	127	–	–	–	–	–	–	–
CN(C)C(=S)Cl	–	42.5	–	–	–	–	–	–

SMILES	boiling point [°C]	melting point [°C]	log10 vapour pressure (mmHg)	log10 biodegradation half-life (days)	ready biodegradability	log10 Henry constant (atm·m³/mol)	log10 Koc (L/kg)	log10 Koa
O=C1OC(OC2OC(=O)C(Cl)=C2Cl)C(Cl)=C1Cl (centres undefined)	–	142	–	–	–	–	–	–
Pc1ccccc1	160	–	–	–	–	–	–	–
O=C(/C=C/c1cccc([N+](=O)[O-])c1)c1ccccc1	–	146	–	–	–	–	–	–
CCCCCCCCCCCCC(=O)OC	–	6.5	-2.89	–	–	–	–	–
CCC(=O)O[C@H]1CC[C@@]2(C)C(=CC[C@H]3[C@@H]4CC[C@H](OC(=O)CC)[C@@]4(C)CC[C@@H]32)C1	–	113	–	–	–	–	–	–
BrCCC1CCCCC1	212	-57	–	–	–	–	–	–
CCOC(=O)C(=O)c1ccccc1	256	–	–	–	–	–	–	–
CCNC(=O)OCC	176	–	–	–	–	–	–	–
OCCSCCCCCCCCCCSCCO	–	69.5	–	–	–	–	–	–
CC(C)[C@@H](C)/C=C/[C@@H](C)[C@H]1CC[C@H]2/C(=C/C=C3\C[C@@H](O)CC[C@@H]3C)CCC[C@]12C	–	126	–	–	–	–	–	–
O=S(=O)(c1ccccc1)c1ccc(Cl)cc1	–	94	–	–	–	–	–	–
OCCNCO	–	–	–	–	readily biodegradable	–	–	–
Cc1ccc2[nH]nnc2c1	–	81	–	–	–	–	–	–
C=CCNC	65	–	–	–	–	–	–	–
Clc1cc2c(Cl)cc(Cl)c(Cl)c2c(Cl)c1Cl	–	–	-6.46	–	–	–	–	9.67
CCN(CC)C(=S)SC(=S)N(CC)CC	–	31	–	–	–	–	–	–
CCOS(=O)OCC	158	–	–	–	–	–	–	–
COc1ncnc(NS(=O)(=O)c2ccc(N)cc2)c1OC	–	192	–	–	–	–	–	–
O=C1c2ccccc2C(=O)N1Cc1ccccc1	–	116	–	–	–	–	–	–
SCc1ccc(Cl)cc1	–	19.5	–	–	–	–	–	–
CCCN(CCC)C(=O)C(CCC(=O)O)NC(=O)c1ccccc1 (centres undefined)	–	144	–	–	–	–	–	–
CCCCCCCCCC(=O)Cl	–	-34.5	–	–	–	–	–	–
CCOC(=O)NNC(=O)OCC	–	135	–	–	–	–	–	–

SMILES	boiling point [°C]	melting point [°C]	log10 vapour pressure (mmHg)	log10 biodegradation half-life (days)	ready biodegradability	log10 Henry constant (atm·m³/mol)	log10 Koc (L/kg)	log10 Koa
CCCCC(CC)COC(=O)CCC (centres undefined)	–	–	–	–	readily biodegradable	–	–	–
FC(Cl)C(F)(F)Br (centres undefined)	52.5	–	–	–	–	–	–	–
CCCCCCCCCCCCCCCC(=O)OC[C@H](COP(=O)([O-])OCC[N+](C)(C)C)OC(=O)CCCCCCCCCCCCCCC	–	234	–	–	–	–	–	–
N#CCCCCCCC#N	–	-3.5	–	–	–	–	–	–
CC(C(=O)O)c1ccc(C2CCC/C(=N\O)C2)cc1 (centres undefined)	–	178	–	–	–	–	–	–
O=C(Cl)c1cccc(F)c1	189	-30	–	–	–	–	–	–
OC(c1ccc(F)cc1)(c1cncnc1)c1ccccc1Cl (centres undefined)	–	126	–	–	–	–	–	–
CC(C)(C)c1cc(CCC(=O)OCC(COC(=O)CCc2cc(C(C)(C)C)c(O)c(C(C)(C)C)c2)(COC(=O)CCc2cc(C(C)(C)C)c(O)c(C(C)(C)C)c2)COC(=O)CCc2cc(C(C)(C)C)c(O)c(C(C)(C)C)c2)cc(C(C)(C)C)c1O	–	–	–	–	not readily biodegradable	–	–	–
O=C(O)CCCCCC(=O)O	342	106	-7.05	–	–	–	–	–
CC[C@](C)(N)C(=O)O (racemic)	–	316	–	–	–	–	–	–
CC(C)OC(=O)C(C(=O)OC(C)C)=C1SCCS1	–	54	–	–	–	–	–	–
Nc1cccnc1	252	64.5	–	–	not readily biodegradable	–	–	–
CC(Cl)(Cl)C(=O)[O-].[Na+]	–	166	–	–	–	–	–	–
Nc1cc2ccccc2c2ccccc12	–	138	–	–	–	–	–	–
NCCN1CCNCC1	220	–	–	–	not readily biodegradable	–	–	–
CCCCCCCCCCCCCCCCC(CCC)c1ccccc1 (centres undefined)	–	31.4	–	–	–	–	–	–
ClCCC(Cl)Cl	146	-59	–	–	–	–	–	–
CCCOC(=O)c1ccc(N)cc1	–	75	–	–	–	–	–	–
CN(C)c1ccc(Br)cc1	264	55	–	–	–	–	–	–
Cn1cccc1-c1cccnc1	281	–	–	–	–	–	–	–
Fc1ccc(F)c(F)c1	90	–	–	–	–	–	–	–
COc1ccc(NC(C)=O)cc1N	–	–	–	–	not readily biodegradable	–	–	–

Same assay, conditions: fish

SMILES	log10 BCF	log10 biotransformation half-life (days)
CC(CC(C)(C)C)CC(C)(C)C	2.94	0.72
COP(=S)(OC)Oc1cc(Cl)c(I)cc1Cl	3.62	0.86
ClC1CCCCC1	2.34	0.41
CC1(C)C(C=C(Cl)Cl)C1C(=O)OC(C#N)c1cccc(Oc2ccccc2)c1 (centres undefined)	2.53	–
CC(C)OC(=O)C(C(=O)OC(C)C)=C1SCCS1	1.57	–
Nc1cccnc1	0.32	–
